In US9433573B2, “Microfabricated nanopore device for sustained release of therapeutic agent” (Delpor, Inc., priority 2001, dated 2016):

Experiments:
[1] = In vitro release of 125I-lysozyme from nanopore membrane implants
Source text: (§1) Lysozyme, an enzyme with a molecular weight intermediate between that of glucose and albumin (MW 12,000 Daltons) was used to measure diffusion kinetics through nanopore membranes both in vitro and in vivo. Radiolabeled (^125-I) lysozyme was obtained from ICN Biochemicals. Unlabeled lysozyme was obtained from Sigma Chemical Corp. Radiolabeled lysozyme was admixed with unlabeled lysozyme and loaded into implants as described above for albumin. In vitro release rates for three size membranes are plotted in FIG. 8. Lysozyme release rates are zero-order for membranes pore sizes of 13 nm and 49 nm.

[2] = parameters: species or system rats; conditions: rat, in vivo, sc, 80 ug
Source text: as §1
Blood levels of lysozyme in groups of three rats given either a single subcutaneous bolus of 80 μg or after implantation of a nanopore implant device designed to release lysozyme at a rate of 17 μg/day are shown in FIG. 9.

Substance: lysozyme
- lysozyme release rates (kinetics) ([1]; membrane pore sizes of 13 nm and 49 nm, in vitro): zero-order
- flux of lysozyme versus initial concentration ([1]; pore size of 13 nm or less, in vitro (data not shown)): independent of initial concentration
- apparent half-life in blood stream [2]: less than several days
